The record followed here is BindingDB's records for patent US20250313563 (The Broad Institute, 2025).

pIC50: −log10 of the molar value. Values joined by “and” are separate entries in the source; they are usually repeats but may differ in a detail not shown here. Equal values may be shown once. A value given as a limit tells only on which side of the number the result lay.

The target of test [1] is Glycogen synthase kinase-3 beta (Homo sapiens, UniProt P49841). The experiment in a line: TR-FRET Assay. An outline of the steps:
(§1)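 Enzyme and test compound were first incubated together for 30 minutes in assay buffer. The kinase reaction followed and was stopped with EDTA. The pSer641 signal was read by time-resolved FRET.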

For test [2], the target named is Glycogen synthase kinase-3 alpha (Homo sapiens, UniProt P49840). The experiment in a line: TR-FRET Assay. In short, it runs like this:
as §1
Background: Time-resolved FRET reads energy transfer from a long-lived donor to a nearby acceptor.

Chain of Glycogen synthase kinase-3 beta (P49841 whole entry): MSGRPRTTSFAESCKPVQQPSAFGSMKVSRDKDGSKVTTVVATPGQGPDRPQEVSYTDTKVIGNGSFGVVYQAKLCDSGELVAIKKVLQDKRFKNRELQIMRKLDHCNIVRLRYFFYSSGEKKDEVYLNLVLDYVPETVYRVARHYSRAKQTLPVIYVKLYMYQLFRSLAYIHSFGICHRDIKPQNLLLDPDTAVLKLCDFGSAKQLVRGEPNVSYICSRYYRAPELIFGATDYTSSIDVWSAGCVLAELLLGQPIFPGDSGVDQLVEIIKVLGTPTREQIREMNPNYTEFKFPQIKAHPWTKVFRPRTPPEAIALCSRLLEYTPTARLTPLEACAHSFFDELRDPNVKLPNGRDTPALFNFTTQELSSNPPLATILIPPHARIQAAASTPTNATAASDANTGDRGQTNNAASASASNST
Chain of Glycogen synthase kinase-3 alpha (P49840 whole entry): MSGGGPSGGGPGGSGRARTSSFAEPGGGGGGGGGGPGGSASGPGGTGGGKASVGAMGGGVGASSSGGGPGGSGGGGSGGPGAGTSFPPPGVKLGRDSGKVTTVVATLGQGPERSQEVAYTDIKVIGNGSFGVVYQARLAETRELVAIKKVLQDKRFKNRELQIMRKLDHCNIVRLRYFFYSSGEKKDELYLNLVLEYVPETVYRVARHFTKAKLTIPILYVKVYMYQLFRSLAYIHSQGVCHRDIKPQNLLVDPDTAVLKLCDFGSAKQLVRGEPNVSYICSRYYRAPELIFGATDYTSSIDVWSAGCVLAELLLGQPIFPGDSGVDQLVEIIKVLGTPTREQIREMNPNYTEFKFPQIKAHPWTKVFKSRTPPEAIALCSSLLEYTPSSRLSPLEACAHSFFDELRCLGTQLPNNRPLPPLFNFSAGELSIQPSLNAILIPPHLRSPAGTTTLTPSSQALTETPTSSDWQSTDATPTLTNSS

The pIC50 is the IC50 on a negative log10 scale, so that one unit is a factor of ten. Low values mean a high IC50, high ones a low IC50. `CCC1(c2cccc(-c3cncn3C)c2)C2=C(CC(C)(C)NC2=O)NC2N=NC(C(F)(F)F)=C21` (stereo not given) [US20250313563, Compound 948180]: the pIC50 in test [1] and in test [2] was greater than 7.00 throughout.
Turning to `CC[C@]1(c2cccc(-c3ccnc(C)c3C)c2)C2=C(CC(C)(C)NC2=O)NC2N=NC(C(F)(F)F)=C21` (stereo not given in full) [US20250313563, Compound 948181], the negative logarithm of the IC50 (pIC50) in test [1] and in test [2] was 6.00 to 7.00 throughout.
As to `CC[C@]1(c2cccc(-c3ccnc(C)c3C)c2)C2=C(CC(C)(C)NC2=O)NC2N=NC(C)=C21` (stereo not given in full) [US20250313563, Compound 948183], the values for the negative logarithm of the IC50 (pIC50) in test [1] and in test [2] were less than 5.30 and 5.30 to 6.00, respectively.
Take `CC[C@@]1(c2cccc(-c3ccnc(C)c3C)c2)C2=CN=NC2NC2=C1C(=O)NC(C)(C)C2` (stereo not given in full) [US20250313563, Compound 948184]: the pIC50 is 6.00 to 7.00 and 5.30 to 6.00 in test [1]; > 7.00 and 6.00 to 7.00 in test [2].
Regarding `CC[C@]1(c2cccc(-c3ccnc(C)c3C)c2)C2=CN=NC2NC2=C1C(=O)NC(C)(C)C2` (stereo not given in full) [US20250313563, Compound 948188], the figures for the negative-log IC50 (pIC50) in test [1] and in test [2] were less than 5.30 and 5.30 to 6.00, respectively.
`CCC1(c2cccc(C(F)(F)F)c2)C2=C(NC3=NN=CC31)c1ccccc1C2=O` (stereo not given) [US20250313563, Compound 948205]: the pIC50 in test [1] is > 7.00 and 6.00 to 7.00; in test [2] it was > 7.00 and 6.00 to 7.00.
For `CC1(C)CC(=O)C2=C(C1)NC1=C(CN=N1)[C@]21COC2(CN(C(=O)[C@H]3CC3(F)F)C2)C1` [US20250313563, Compound 948215], the pIC50 in test [1] was > 7.00 and 6.00 to 7.00; in test [2] it was > 7.00 and 6.00 to 7.00.
With `CC1(C)CC(=O)C2=C(C1)NC1=C(CN=N1)[C@@]21COC2(CN(C(=O)[C@H]3CC3(F)F)C2)C1` [US20250313563, Compound 948217], the figures for the pIC50 in test [1] and in test [2] were 5.30 to 6.00 and 6.00 to 7.00, respectively.
With `CC1(C)CC(=O)C2=C(C1)NC1=C(CN=N1)[C@]21COC2(CN(C(=O)[C@@H]3CC3(F)F)C2)C1` [US20250313563, Compound 948219], the negative-log IC50 (pIC50) in test [1] is > 7.00 and 5.30 to 6.00; in test [2], > 7.00 and 6.00 to 7.00.
In the case of `CC1(C)CC(=O)C2=C(C1)NC1=C(CN=N1)[C@@]21COC2(CN(C(=O)[C@@H]3CC3(F)F)C2)C1` [US20250313563, Compound 948221], the negative logarithm of the IC50 (pIC50) in test [1] and in test [2] was 6.00 to 7.00 in each case.
As for `Cc1cc(C)cc(C(=O)N2CC3(C2)C[C@]2(CO3)C3=C(N=NC3)NC3=C2C(=O)CC(C)(C)C3)c1` [US20250313563, Compound 948222], the pIC50 in test [1] was 5.30 to 6.00; in test [2], 6.00 to 7.00.
Take `Cc1cc(C)cc(C(=O)N2CC3(C2)C[C@@]2(CO3)C3=C(N=NC3)NC3=C2C(=O)CC(C)(C)C3)c1` [US20250313563, Compound 948223]: the pIC50 in test [1] was > 7.00 and 6.00 to 7.00; in test [2] it was > 7.00 and 6.00 to 7.00.
As to `CC[C@]1(c2cccc(C(F)(F)F)c2)C2=CN=NC2NC2=C1C(=O)N(c1ccc(F)cc1)CC2` (stereo not given in full) [US20250313563, Compound 948224], the pIC50 in test [1] was 6.00 to 7.00; in test [2], greater than 7.00.
On the same counts, the results for `CC[C@@]1(c2cccc(C(F)(F)F)c2)C2=CN=NC2NC2=C1C(=O)N(c1ccc(F)cc1)CC2` (stereo not given in full) [US20250313563, Compound 948225] are less than 5.30 and 5.30 to 6.00.
Taken in the same sequence, the figures for `CC[C@@]1(c2cccc(C(F)(F)F)c2)C2=C(CCN(c3ccc(OC)cc3)C2=O)NC2N=NC(C)=C21` (stereo not given in full) [US20250313563, Compound 948226] were 6.00 to 7.00 and greater than 7.00.
On the same counts, the results for `CC[C@@]1(c2cccc(C(F)(F)F)c2)C2=CN=NC2NC2=C1C(=O)N(c1ccc(OC)cc1)CC2` (stereo not given in full) [US20250313563, Compound 948227] are less than 5.30 and 5.30 to 6.00.
As to `CCC1(c2cccc(C(F)(F)F)c2)C2=CN=NC2NC2=C1C(=O)N(c1cncnc1)CC2` (stereo not given) [US20250313563, Compound 948238], the pIC50 in test [1] is 6.00 to 7.00; in test [2], greater than 7.00.
Taken in the same sequence, the figures for `CCC1(c2cccc(C(F)(F)F)c2)C2=CN=NC2NC2=C1C(=O)N(c1ccc(C)cc1)CC2` (stereo not given) [US20250313563, Compound 948241] were 6.00 to 7.00 and greater than 7.00.
On the same counts, the results for `CCC1(c2cccc(OC)c2)C2=C(N=NC2)NC2=C1C(=O)NC(C)(C)C2` (stereo not given) [US20250313563, Compound 948296] are 5.30 to 6.00 and 6.00 to 7.00.
Taken in the same sequence, the figures for `CCC1(c2cccc(-c3ccnc(C)c3F)c2)C2=C(CC(C)(C)NC2=O)NC2N=NC(C(F)(F)F)=C21` (stereo not given) [US20250313563, Compound 948297] were greater than 7.00 and greater than 7.00.
As to `CC1(C)CC(=O)C2=C(C1)NC1=C(CN=N1)C21CN(c2ccccc2)C1` [US20250313563, Compound 948298], the pIC50 in test [1] and in test [2] was greater than 7.00 each time.
As for `CCC1(c2cccc(-c3ccnc(C)c3)c2)C2=C(CC(C)(C)NC2=O)NC2N=NC(F)=C21` (stereo not given) [US20250313563, Compound 948299], the pIC50 in test [1] was 5.30 to 6.00; in test [2], greater than 7.00.
On the same counts, the results for `CCC1(c2cccc(-c3cnn(C)c3)c2)C2=C(CC(C)(C)NC2=O)NC2N=NC(F)=C21` (stereo not given) [US20250313563, Compound 948300] are 6.00 to 7.00 and greater than 7.00.
As to `CCC1(c2cccc(-c3cn(C)nc3C)c2)C2=C(CC(C)(C)NC2=O)NC2N=NC(F)=C21` (stereo not given) [US20250313563, Compound 948301], the pIC50 in test [1] and in test [2] was greater than 7.00 throughout.
For `CCC1(c2cccc(-c3ccnc(C)c3)c2)C2=CN=NC2NC2=C1C(=O)N(C)C(C)(C)C2` (stereo not given) [US20250313563, Compound 948302], the pIC50 was 6.00 to 7.00 in test [1] and greater than 7.00 in test [2].
On the same counts, the results for `CCC1(c2cccc(S(=O)(=O)C3CC3)c2)C2=CN=NC2NC2=C1C(=O)N(C)C(C)(C)C2` (stereo not given) [US20250313563, Compound 948303] are greater than 7.00 and greater than 7.00.
Take `CCC1(c2cccc(-c3cn(C)nc3C)c2)C2=CN=NC2NC2=C1C(=O)N(C)C(C)(C)C2` (stereo not given) [US20250313563, Compound 948304]: the pIC50 in test [1] and in test [2] was greater than 7.00 throughout.
Regarding `CCC1(c2cccc(C(F)F)c2)C2=C(CC(C)(C)NC2=O)NC2N=NC(C(F)(F)F)=C21` (stereo not given) [US20250313563, Compound 948305], the pIC50 in test [1] and in test [2] was greater than 7.00 each time.
Consider `CC[C@@]1(c2cccc(-c3ccnc(C)c3F)c2)C2=CN=NC2NC2=C1C(=O)NC(C)(C)C2` (stereo not given in full) [US20250313563, Compound 948306], for which the pIC50 was 6.00 to 7.00 in test [1] and greater than 7.00 in test [2].
On the same counts, the results for `CC[C@]1(c2cccc(C3=CN=NC3)c2)C2=C(CC(C)(C)NC2=O)NC2N=NC(C(F)(F)F)=C21` (stereo not given in full) [US20250313563, Compound 948307] are greater than 7.00 and greater than 7.00.
Taken in the same sequence, the figures for `CC[C@]1(c2cccc(-c3cn(C)nc3C)c2)C2=C(CC(C)(C)NC2=O)NC2N=NC(C(F)(F)F)=C21` (stereo not given in full) [US20250313563, Compound 948309] were less than 5.30 and 5.30 to 6.00.
Taken in the same sequence, the figures for `CC[C@]1(c2cccc(-c3ccnc(C)c3F)c2)C2=CN=NC2NC2=C1C(=O)NC(C)(C)C2` (stereo not given in full) [US20250313563, Compound 948311] were 5.30 to 6.00 and 6.00 to 7.00.
Turning to `CC[C@@]1(c2cccc(C3=CN=NC3)c2)C2=C(CC(C)(C)NC2=O)NC2N=NC(C(F)(F)F)=C21` (stereo not given in full) [US20250313563, Compound 948312], the pIC50 was 6.00 to 7.00 in test [1] and greater than 7.00 in test [2].
Turning to `CC[C@]1(c2cccc(-c3ccnc4c3CCC4)c2)C2=CN=NC2NC2=C1C(=O)NC(C)(C)C2` (stereo not given in full) [US20250313563, Compound 948313], the pIC50 in test [1] is > 7.00 and 5.30 to 6.00; in test [2], > 7.00 and 6.00 to 7.00.
Regarding `CC(=O)N1CC[C@]2(C1)C[C@@]1(CO2)C2=C(N=NC2)NC2=C1C(=O)CC(C)(C)C2` [US20250313563, Compound 948319], the pIC50 in test [1] was 6.00 to 7.00; in test [2] it was greater than 7.00.
On the same counts, the results for `CC(=O)N1CC[C@@]2(C1)C[C@@]1(CO2)C2=C(N=NC2)NC2=C1C(=O)CC(C)(C)C2` [US20250313563, Compound 948320] are 5.30 to 6.00 and 6.00 to 7.00.
Turning to `CC[C@@]1(c2cccc(-c3ccnn3C)c2)C2=CN=NC2NC2=C1C(=O)NC1(CCC1)C2` (stereo not given in full) [US20250313563, Compound 948358], the pIC50 in test [1] is > 7.00 and 5.30 to 6.00; in test [2], > 7.00 and 6.00 to 7.00.
Take `CC[C@@]1(c2cccc(-c3ccncc3C)c2)C2=CN=NC2NC2=C1C(=O)NC1(CCOCC1)C2` (stereo not given in full) [US20250313563, Compound 948359]: the pIC50 is > 7.00 and 5.30 to 6.00 in test [1]; > 7.00 and 6.00 to 7.00 in test [2].
For the molecule `CCc1cc(-c2cccc([C@@]3(CC)C4=CN=NC4NC4=C3C(=O)NC(C)(C)C4)c2)ccn1` (stereo not given in full) [US20250313563, Compound 948360], the pIC50 in test [1] was less than 5.30; in test [2], 5.30 to 6.00.
For `CC[C@@]1(c2cccc(-c3ccnc(C)c3Cl)c2)C2=CN=NC2NC2=C1C(=O)NC(C)(C)C2` (stereo not given in full) [US20250313563, Compound 948361], the pIC50 in test [1] was > 7.00 and 5.30 to 6.00; in test [2] it was > 7.00 and 6.00 to 7.00.
`CC[C@]1(c2cccc(C3=C4CC=C(Cl)C=C4N=CC3)c2)C2=CN=NC2NC2=C1C(=O)NC(C)(C)C2` (stereo not given in full) [US20250313563, Compound 948362]: the pIC50 in test [1] and in test [2] was less than 5.30 throughout.
`CC[C@]1(c2cccc(-c3c(F)cncc3Cl)c2)C2=CN=NC2NC2=C1C(=O)NC(C)(C)C2` (stereo not given in full) [US20250313563, Compound 948363]: the pIC50 in test [1] is less than 5.30; in test [2], 5.30 to 6.00.
On the same counts, the results for `CC[C@]1(c2cccc(-c3ccnn3C)c2)C2=CN=NC2NC2=C1C(=O)N[C@]1(CCCOC1)C2` (stereo not given in full) [US20250313563, Compound 948365] are less than 5.30 and 5.30 to 6.00.
Taken in the same sequence, the figures for `CC[C@@]1(c2cccc(C3=C4CC=C(Cl)C=C4N=CC3)c2)C2=CN=NC2NC2=C1C(=O)NC(C)(C)C2` (stereo not given in full) [US20250313563, Compound 948368] were 6.00 to 7.00 and greater than 7.00.
In the case of `CC[C@]1(c2cccc(-c3ccnc(C)c3Cl)c2)C2=CN=NC2NC2=C1C(=O)NC(C)(C)C2` (stereo not given in full) [US20250313563, Compound 948369], the pIC50 in test [1] and in test [2] was less than 5.30 throughout.
